In patent publication US11065277B2, “Method of ameliorating side effects of sickle cell disease treatments” (ALBERT EINSTEIN COLLEGE OF MEDICINE, priority 2015, dated 2021):
Entries after “also recorded” stand apart in the source; their conditions may differ.

Legend:
BERK low gamma [1] = assay: Systemic vaso-occlusion and systemic flow in low gamma BERK; assay type: in vivo, mouse
Excerpt: (§1) Just as with supra-perfusion therapy, a sickle therapy induced toxicity is apparent in the quercetin-based antioxidant therapy of sickle cell disease. […] However, this nearly complete clearance of the vaso-occlusion appears to induces a toxicity to such treated low gamma BERK, as the animal die after six to eight hrs. after infusing quercetin. Accordingly, it was concluded that antisickling, or antioxidant or antiadhesive therapies, need to be combined with anti-anemia therapy to protect the brain tissues from hypoxic effects as the systemic perfusion is improved as vasoconstrictive effects are reduced.
(§2) A lower dosage of the therapeutic that only marginally reduces the severity of the disease as reflected by systemic vaso-occlusion can still moderate the severity of the disease to some degree without creating an oxygen debt in the brain (i.e. the pathology of the disease as reflected by CBF and BOLD, in an organ specific manner).

BERK mice [2] = assay: Cerebral blood flow (CBF) after treatment; assay type: in vivo, mouse
BERK mice [3] = assay: BOLD-RHO (BOLD MRI response to hyperoxia, gray matter); assay type: in vivo, mouse
Experimental: BL=baseline, PI=post injection. […] Using BOLD MRI imaging (which is sensitive to the tissue concentration of deoxy-Hb) the sufficiency of oxygenation of cerebral tissues was measured by assessing the change in deoxy-Hb which occurs with administration of a short inhalation bolus of 100% O2.

BERK low gamma [4] = details: mouse, in vivo, ip
Excerpt: as §1, §2

BERK mice [5] = assay: Intravital microscopy of the systemic circulation (shear rate, volumetric flow rate, leukocyte adhesion, sickling); assay type: in vivo, mouse
[6] = Plasma level after 10% top load infusion; assay type: in vivo, mouse; details: low gamma BERK mice, infusion of 6 gm % solution at 10% top load
Excerpt: Infusion of a 6 gm % solution EAF P3K6 Hb to a low gamma BERK mice at 10% top load results in a presence of 0.3 gm/dl EAF P3K6 Hb in the plasma, the HbS in the RBC being 8 gm/dl.

[7] = low gamma BERK, single dose 20 mg/kg intraperitoneally, three hrs. after infusion
[8] = BERK low gamma, 50 mg/kg intraperitoneal three times a week
[9] = low gamma BERK, daily oral dosing 100/mg per/kg for 10 days
[10] = BERK mice, post injection vs baseline, 10% top-load

NC(=O)NO [hydroxy urea, reference compound]
expression of fetal Hb (BERK low gamma [1]; [7]): without any expression
systemic flow (BERK low gamma [1]; [7]): significant improvement
vaso-occlusion (BERK low gamma [1]; [7]): level close to that of medium gamma BERK

O=c1c2cc(O)c(O)cc2oc2cc(O)c([C@@H]3O[C@H](CO)[C@@H](O)[C@H](O)[C@H]3O)c(O)c12 [mangiferine, reference compound]
therapeutic efficacy for SCD (vaso-occlusion) (BERK low gamma [1]; BERK low gamma): not seen

O=c1c(O)c(-c2ccc(O)c(O)c2)oc2cc(O)cc(O)c12 [quercetin, 2-(3,4-dihydroxyphenyl)-3,5,7-trihydroxy-4H-chromen-4-one]
influence on CBF (BERK mice [2]; [8]): very little influence
influence on CBF (BERK mice [2]; [9]): without any significant influence
influence on BOLD (BERK mice [3]; [9]): without any significant influence
therapeutic efficacy for SCD (vaso-occlusion) (BERK low gamma [1]; BERK low gamma): dose dependent
vaso-occlusion (BERK low gamma [1]; [8]): small attenuation
vaso-occlusion (BERK low gamma [1]; BERK low gamma, 200 mg/kg intraperitoneal, measured 3 hrs after infusion): nearly completely attenuated
improvement of systemic circulation (BERK low gamma [1]; [9]): 60 to 70%
toxicity to animals (BERK low gamma [4]; 50 mg/kg): not toxic
time of death after infusing (BERK low gamma [4]; 200 mg/kg): six to eight

EAF-PEG-Hb: extension arm facilitated hemoglobin molecule having 6 molecules of 3,000 mw polyethylene glycol (PEG) attached thereto
Volumetric flow rate / systemic (peripheral) tissue blood flow (BERK mice [5]; BERK / sickle transgenic mice, after 10% topload): still increased
Leukocyte adhesion in systemic post capillary venules (BERK mice [5]; sickle transgenic animals, systemic circulation): still reduced
CBF (BERK mice [2]; [10]): drop in CBF; also recorded: decreased
CBF (BERK mice [2]; low gamma BERK mice, 6 gm % solution at 10% top load): normalize the CBF
BOLD-RHO (hypoxic stress, brain deoxy-Hb response to hyperoxia) (BERK mice [3]; [10]): No drop in brain deoxy-Hb was detected; also recorded: protected against the decrease in CBF
presence in the plasma [6]: 0.3 gm/dl
